The record followed here is patent publication EP0023103A1, “Antifungal imidazole derivatives, process for their preparation and pharmaceutical compositions thereof” (Pfizer Limited, priority 1979, dated 1981).

Molecules are shown by their SMILES.

This assay relates to Candida albicans. Nature of the assay: In vitro anti-fungal activity: minimum inhibitory concentration (m.i.c.) on agar plates. The settings on record: geometrical mean of results against a panel of 12 strains of Candida albicans; agar plates incubated for 48 hours at 37°C. Format: cell-based.
`C=CC(C)C(O)(Cn1ccnc1)c1ccc(Cl)cc1Cl` (single isomer, unassigned) [Example 3a, 2-(2,4-Dichlorophenyl)-1-(1-imidazolyl)-3-methyl-pent-4-en-2-ol]: the Mean m.i.c. was found to be 18.0. For `C=CC(C)C(O)(Cn1ccnc1)c1ccc(Cl)cc1Cl` (single isomer, unassigned) [Example 3b, 2-(2,4-Dichlorophenyl)-1-(1-imidazolyl)-3-methyl-pent-4-en-2-ol] the value was 11.0; for `C=CCC(O)(Cn1ccnc1)c1ccc(Cl)cc1Cl` (stereo not shown) [Example 1, 2-(2,4-Dichlorophenyl)-1-(1-imidazolyl)-pent-4-en-2-ol], 22.0. For the compound `CCCC(O)(Cn1ccnc1)c1ccc(Cl)cc1Cl` (stereo not shown) [Example 2, 2-(2,4-Dichlorophenyl)-1-(1-imidazolyl)-pentan-2-ol], the Mean m.i.c. worked out at 12.5. Take `CCC(C)C(O)(Cn1ccnc1)c1ccc(Cl)cc1Cl` (stereo not shown) [Example 4, 2-(2,4-Dichlorophenyl)-1-(1-imidazolyl)-3-methyl-pentan-2-ol]: the Mean m.i.c. turned out to be 12.0. The value for `CCC(O)(Cn1ccnc1)c1ccc(Cl)cc1Cl` (stereo not shown) [Example 5, 2-(2,4-dichlorophenyl)-1-(1-imidazolyl)-butan-2-ol] was 21.0; that for `CCCCC(O)(Cn1ccnc1)c1ccc(Cl)cc1Cl` (stereo not shown) [Example 6] was 3.8; that for `CC(C)(C)C(O)(Cn1ccnc1)c1ccc(Cl)cc1Cl` (stereo not shown) [Example 7] was 11.0. In turn, `CC(C)C(O)(Cn1ccnc1)c1ccc(Cl)cc1Cl` (stereo not shown) [Example 8] gave a Mean m.i.c. of 21.0. In the case of `CCCCCC(O)(Cn1ccnc1)c1ccc(Cl)cc1Cl` (stereo not shown) [Example 9], the Mean m.i.c. amounted to 5.2.

For the compound `CCCCCCC(O)(Cn1ccnc1)c1ccc(Cl)cc1Cl` (stereo not shown) [Example 10, 2-(2,4-dichlorophenyl)-1-(1-imidazolyl)-octan-2-ol], the Mean m.i.c. turned out to be 3.1. For `C=CCCC(O)(Cn1ccnc1)c1ccc(Cl)cc1Cl` (stereo not shown) [Example 11] the value was 6.8; for `OC(CC1CC1)(Cn1ccnc1)c1ccc(Cl)cc1Cl` (stereo not shown) [Example 15], 6.3. Turning to `CC(C)CC(O)(Cn1ccnc1)c1ccc(Cl)cc1Cl` (stereo not shown) [Example 16], the Mean m.i.c. was found to be 5.6. The value for `C=CCCCC(O)(Cn1ccnc1)c1ccc(Cl)cc1Cl` (stereo not shown) [Example 17] was 8.4; that for `CC(C)CCC(O)(Cn1ccnc1)c1ccc(Cl)cc1Cl` (stereo not shown) [Example 18] was 3.8; that for `CCCCCCCC(O)(Cn1ccnc1)c1ccc(Cl)cc1Cl` (stereo not shown) [Example 19] was 5.6. The value for `CCCCC(O)(Cn1ccnc1)c1ccc(Cl)cc1` (stereo not shown) [Example 20, 2-(4-Chlorophenyl)-1-(1-imidazolyl)-hexan-2-ol] was 38.0. Turning to `CCCCC(O)(Cn1ccnc1)c1ccccc1Cl` (stereo not shown) [Example 21, 2-(2-Chlorophenyl)-1-(1-imidazolyl)-hexan-2-ol], the Mean m.i.c. worked out at 18.0.
